Consider 8 molecules from PubChem BioAssay (NCI).

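Exposure lasted 48 hours, with cells grown in 96-well plates and compounds tested at five concentrations. TGI: concentration producing complete growth inhibition.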

Common to all, as to assay: growth of human tumour cells (NCI), 48 h
The test system of test [1] is A549 NSCLC.
Test [2] relates to CAKI-1 renal.
Test [3] has as its system COLO 205 colon.
Test [4] deals with HCT-15 colon.
Test [5] concerns HOP-62 NSCLC.
Test [6] relates to HOP-92 NSCLC.
Test [7] deals with HT29 colon.
Test [8] relates to KM12 colon.
Test [9] relates to NCI-H226 lung.
Test [10] deals with OVCAR-5 ovarian.
Test [11] has as its system OVCAR-8 ovarian.
The test system of test [12] is SF-539 CNS.
The test system of test [13] is SK-MEL-2 melanoma.
In test [14] the test system is SW-620 colon.
Test [15] has as its system U251 CNS.

For the molecule `COc1cc2c(/C=C3/C(=O)Nc4cc(C)c(O)cc43)c(Cl)[nH]c2cc1C`, the TGI in test [1] is 20.2 µM; in [2] it was 7.01 µM; in test [3] it was 4.62 µM; in test [4], 13.5 µM; in [5], 10.9 µM; in test [6] it was above 100 µM. Moreover, the TGI was 5.31 µM in test [7]; 10.2 µM in test [8]; 23.6 µM in test [9]; 15.6 µM in [10]; 15.7 µM in [11]; 5.93 µM in test [12]. Further, the TGI in test [13] was 23.9 µM; in test [14] it was 12.4 µM; in test [15], 15.7 µM.
Turning to `Cc1c2cnccc2c(C)c2c1c1ccccc1n2CCCCCCCl`, the TGI in test [1] was above 50 µM; in [2], above 50 µM; in [3], above 34.1 µM; in test [4], above 50 µM; in test [5], above 50 µM; in [6] it was above 50 µM. Moreover, the TGI was above 50 µM in test [7]; above 50 µM in test [8]; above 46.7 µM in test [9]; above 50 µM in test [10]; above 50 µM in test [11]; above 50 µM in test [12]. Moreover, the TGI in test [13], in [14] and in [15] was above 50 µM in each case.
For `O=C(O)C(C1NCCS1)N1C(=O)c2ccccc2C1=O` (stereo not given), the TGI in test [1], in test [2], in test [3], in [4], in test [5] and in [6] was above 100 µM in each case. The TGI in [7], in test [8], in [9], in test [10], in test [11] and in test [12] was above 100 µM throughout. Further, the TGI in test [13], in test [14] and in test [15] was above 100 µM throughout.
Take `O=C(c1ccsc1)c1nccc2c1cnc1ccccc12`: the TGI in test [1], in test [2], in [3], in test [4], in test [5] and in [6] was above 100 µM each time. The TGI in [7], in test [8], in [9], in [10], in test [11] and in test [12] was above 100 µM in each case. Moreover, the TGI in [13], in [14] and in [15] was above 100 µM each time.
On to `NNC(=O)c1cc(Cl)ccc1NC(=O)C12CC3CC(CC(C3)C1)C2`, for which the TGI in test [1] is 48.2 µM; in test [2], above 100 µM; in test [3] it was above 100 µM; in test [4] it was above 100 µM; in test [5], above 100 µM; in [6], above 100 µM. The TGI in test [7] was 48 µM; in [8], above 100 µM; in test [9], above 100 µM; in [10] it was 53.9 µM; in [11] it was above 100 µM; in [12] it was above 100 µM. Also, the TGI in [13], in test [14] and in [15] was above 100 µM throughout.
Turning to `CC(C)(C(=O)N(C(=O)N1CCN(c2ccccc2)CC1)S(=O)(=O)c1ccccc1)c1ccc(Cl)cc1`, the TGI in test [1] is above 100 µM; in test [2], above 100 µM; in test [3], 42.7 µM; in [4], above 100 µM; in test [5], above 100 µM; in [6], 53.6 µM. For the same molecule, the TGI in [7], in test [8], in test [9], in test [10], in test [11] and in [12] was above 100 µM each time. For the same molecule, the results for the TGI in [13], in test [14] and in test [15] were 53.9 µM, above 100 µM and above 100 µM, respectively.
Consider `O=C1Sc2sc(=S)sc2SC1c1ccccc1` (stereo not given), for which the TGI in test [1] was above 100 µM; in test [2], above 100 µM; in test [3], above 63.6 µM; in [4], 36.8 µM; in test [5] it was above 100 µM; in test [6], above 82.4 µM. Besides, the TGI in test [7], in test [8], in test [9], in [10], in test [11] and in [12] was above 100 µM throughout. Further, the values for the TGI in test [13], in test [14] and in [15] were above 100 µM, 39.3 µM and above 100 µM, respectively.
Turning to `C=C1C(=O)OC2/C=C(CO)/C=C\C3OC3(C)CC(OC(=O)/C(C)=C/COC(C)=O)C12` (stereo not given), the TGI in test [1] came to 28.5 µM; in [2], 10.9 µM; in test [3], 2.99 µM; in test [4], 4.27 µM; in [5], 35.5 µM; in test [6], 5.94 µM. For the same molecule, the TGI in [7] is 7.39 µM; in test [8], 14.2 µM; in test [9], 27.7 µM; in [10] it was 26.9 µM; in test [11], 7 µM; in [12], 4.39 µM. In addition, the TGI was 7.88 µM in [13], 3.24 µM in test [14] and 14.5 µM in test [15].
